Source: US11147765B1, “Instantly dissolving buccal films” (King Abdulaziz University, priority 2020, dated 2021)
Structures can show the parent of a compound that is named as a salt.

Key:
[1] = Dissolution screening of DPX and its physical mixtures with organic acids and cyclodextrins; type: physicochemical; conditions: phosphate buffer pH 6.8, 37±0.5° C., in absence of excipients
Experimental: Various organic acids (CA, MA, and TA) and cyclodextrins β3-CD and HP-β-CD) were assessed as acidifiers and hydrophilic solubilizers to enhance the dissolution of DPX. Equivalent amounts of DPX and each of the studied excipients were thoroughly mixed for 5 min. The dissolution behavior of specified quantity of each mixture equivalent to 30 mg DPX was done in 900 mL phosphate buffer (pH 6.8) using USP Dissolution Tester, apparatus II (DT 720, Erweka, Germany) operating at 50 rpm at 37±0.5° C.. Aliquot samples were withdrawn after 2 and 15 minutes and replaced with equal volume of fresh buffer. Samples were filtered through a 0.22 μm Millipore filter, and the concentration of DPX was quantified spectrophotometrically at 292 nm (UV-2600 PC; Shimadzu, Kyoto, Japan). The dissolution study was done in triplicate.

[2] = reported [26]; cited from earlier work

percent dissolved after 2 minutes [1]: 2.13±0.09%
percent dissolved after 15 minutes [1]: 2.89±0.06%
SMILES: CN(C)[C@@H](CCOc1cccc2ccccc12)c1ccccc1 [DPX, Dapoxetine hydrochloride]
solubility in phosphate buffer pH 6.8 [2]: 0.26 μg·mL^−1
